Measurements taken from patent US9340590B2 (priority 2011, dated 2016).
Read-outs that look alike come from different tables or passages of the source. Positions of bridges follow the written chain, without caps; N, C: chain ends. Non-standard residues stand in square brackets, D forms with d. Residues, ends and D or L forms follow the SMILES beside them. 1Nal = N[C@@H](Cc1cccc2ccccc12)C(=O)O

Tests used:
Test in all cases: cell-based
hNav1.5 = hNav1.5 (Homo sapiens, UniProt Q14524); conditions: IonWorks Quattro, use-dependent block, read-out: IWQ Use Nav1.5
hNav1.3 = hNav1.3 (Homo sapiens, UniProt Q9NY46); conditions: IonWorks Quattro, use-dependent block, read-out: IWQ Use Nav1.3
hNav1.7 = hNav1.7 (Homo sapiens, UniProt Q15858); type: cell-based; conditions: IonWorks Quattro, use-dependent block, read-out: IWQ Use Nav1.7

Chain of hNav1.5 (Q14524 whole entry, looked up): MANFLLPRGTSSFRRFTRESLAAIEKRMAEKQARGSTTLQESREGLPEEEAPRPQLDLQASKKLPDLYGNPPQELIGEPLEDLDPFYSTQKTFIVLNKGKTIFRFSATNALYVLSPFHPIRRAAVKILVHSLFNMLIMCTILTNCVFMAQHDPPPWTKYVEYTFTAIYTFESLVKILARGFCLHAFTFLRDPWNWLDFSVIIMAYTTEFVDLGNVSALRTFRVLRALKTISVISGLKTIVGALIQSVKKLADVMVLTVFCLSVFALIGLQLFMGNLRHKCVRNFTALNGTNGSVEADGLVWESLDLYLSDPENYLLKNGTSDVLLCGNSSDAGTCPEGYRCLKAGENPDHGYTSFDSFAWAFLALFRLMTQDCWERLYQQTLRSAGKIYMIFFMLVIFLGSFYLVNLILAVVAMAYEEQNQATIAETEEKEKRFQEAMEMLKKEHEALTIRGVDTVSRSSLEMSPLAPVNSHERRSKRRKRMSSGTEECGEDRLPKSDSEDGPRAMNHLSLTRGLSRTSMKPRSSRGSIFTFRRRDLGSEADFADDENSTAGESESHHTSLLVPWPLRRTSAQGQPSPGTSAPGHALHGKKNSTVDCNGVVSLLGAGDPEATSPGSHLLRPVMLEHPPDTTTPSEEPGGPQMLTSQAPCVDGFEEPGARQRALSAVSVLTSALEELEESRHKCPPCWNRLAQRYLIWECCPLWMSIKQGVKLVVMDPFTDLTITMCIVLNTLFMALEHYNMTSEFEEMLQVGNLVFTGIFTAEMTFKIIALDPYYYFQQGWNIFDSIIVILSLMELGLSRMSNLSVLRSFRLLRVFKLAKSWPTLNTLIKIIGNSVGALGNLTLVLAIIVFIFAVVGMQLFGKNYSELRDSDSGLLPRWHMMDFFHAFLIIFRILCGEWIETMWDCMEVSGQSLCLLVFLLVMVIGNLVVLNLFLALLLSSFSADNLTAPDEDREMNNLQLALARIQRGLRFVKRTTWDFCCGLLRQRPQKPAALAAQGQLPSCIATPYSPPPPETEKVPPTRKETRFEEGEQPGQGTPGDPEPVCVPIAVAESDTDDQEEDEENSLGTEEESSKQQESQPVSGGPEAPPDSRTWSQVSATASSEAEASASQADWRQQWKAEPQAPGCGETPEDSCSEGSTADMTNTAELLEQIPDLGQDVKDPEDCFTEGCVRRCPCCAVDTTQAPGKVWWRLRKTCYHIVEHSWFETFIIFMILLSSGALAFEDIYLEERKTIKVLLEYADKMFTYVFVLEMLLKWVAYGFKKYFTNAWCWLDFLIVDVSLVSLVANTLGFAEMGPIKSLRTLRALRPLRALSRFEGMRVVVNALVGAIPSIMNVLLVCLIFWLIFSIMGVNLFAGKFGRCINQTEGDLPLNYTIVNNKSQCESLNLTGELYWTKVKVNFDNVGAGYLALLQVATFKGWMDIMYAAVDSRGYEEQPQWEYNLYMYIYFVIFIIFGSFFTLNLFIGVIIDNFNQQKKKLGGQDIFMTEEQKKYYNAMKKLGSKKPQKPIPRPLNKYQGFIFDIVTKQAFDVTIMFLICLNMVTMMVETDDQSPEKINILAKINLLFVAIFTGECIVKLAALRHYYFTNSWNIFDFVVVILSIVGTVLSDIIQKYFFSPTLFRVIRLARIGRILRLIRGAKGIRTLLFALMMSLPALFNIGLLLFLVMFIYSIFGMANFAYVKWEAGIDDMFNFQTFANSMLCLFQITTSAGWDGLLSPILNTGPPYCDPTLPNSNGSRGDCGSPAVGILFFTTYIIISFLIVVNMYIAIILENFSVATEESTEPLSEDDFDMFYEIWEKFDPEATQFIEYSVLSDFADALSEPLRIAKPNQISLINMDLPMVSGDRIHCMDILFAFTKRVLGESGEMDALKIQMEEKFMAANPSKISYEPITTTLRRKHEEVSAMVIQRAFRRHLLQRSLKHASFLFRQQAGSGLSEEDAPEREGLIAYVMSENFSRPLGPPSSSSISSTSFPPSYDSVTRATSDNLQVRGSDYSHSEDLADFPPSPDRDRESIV
Chain of hNav1.3 (Q9NY46 whole entry, looked up): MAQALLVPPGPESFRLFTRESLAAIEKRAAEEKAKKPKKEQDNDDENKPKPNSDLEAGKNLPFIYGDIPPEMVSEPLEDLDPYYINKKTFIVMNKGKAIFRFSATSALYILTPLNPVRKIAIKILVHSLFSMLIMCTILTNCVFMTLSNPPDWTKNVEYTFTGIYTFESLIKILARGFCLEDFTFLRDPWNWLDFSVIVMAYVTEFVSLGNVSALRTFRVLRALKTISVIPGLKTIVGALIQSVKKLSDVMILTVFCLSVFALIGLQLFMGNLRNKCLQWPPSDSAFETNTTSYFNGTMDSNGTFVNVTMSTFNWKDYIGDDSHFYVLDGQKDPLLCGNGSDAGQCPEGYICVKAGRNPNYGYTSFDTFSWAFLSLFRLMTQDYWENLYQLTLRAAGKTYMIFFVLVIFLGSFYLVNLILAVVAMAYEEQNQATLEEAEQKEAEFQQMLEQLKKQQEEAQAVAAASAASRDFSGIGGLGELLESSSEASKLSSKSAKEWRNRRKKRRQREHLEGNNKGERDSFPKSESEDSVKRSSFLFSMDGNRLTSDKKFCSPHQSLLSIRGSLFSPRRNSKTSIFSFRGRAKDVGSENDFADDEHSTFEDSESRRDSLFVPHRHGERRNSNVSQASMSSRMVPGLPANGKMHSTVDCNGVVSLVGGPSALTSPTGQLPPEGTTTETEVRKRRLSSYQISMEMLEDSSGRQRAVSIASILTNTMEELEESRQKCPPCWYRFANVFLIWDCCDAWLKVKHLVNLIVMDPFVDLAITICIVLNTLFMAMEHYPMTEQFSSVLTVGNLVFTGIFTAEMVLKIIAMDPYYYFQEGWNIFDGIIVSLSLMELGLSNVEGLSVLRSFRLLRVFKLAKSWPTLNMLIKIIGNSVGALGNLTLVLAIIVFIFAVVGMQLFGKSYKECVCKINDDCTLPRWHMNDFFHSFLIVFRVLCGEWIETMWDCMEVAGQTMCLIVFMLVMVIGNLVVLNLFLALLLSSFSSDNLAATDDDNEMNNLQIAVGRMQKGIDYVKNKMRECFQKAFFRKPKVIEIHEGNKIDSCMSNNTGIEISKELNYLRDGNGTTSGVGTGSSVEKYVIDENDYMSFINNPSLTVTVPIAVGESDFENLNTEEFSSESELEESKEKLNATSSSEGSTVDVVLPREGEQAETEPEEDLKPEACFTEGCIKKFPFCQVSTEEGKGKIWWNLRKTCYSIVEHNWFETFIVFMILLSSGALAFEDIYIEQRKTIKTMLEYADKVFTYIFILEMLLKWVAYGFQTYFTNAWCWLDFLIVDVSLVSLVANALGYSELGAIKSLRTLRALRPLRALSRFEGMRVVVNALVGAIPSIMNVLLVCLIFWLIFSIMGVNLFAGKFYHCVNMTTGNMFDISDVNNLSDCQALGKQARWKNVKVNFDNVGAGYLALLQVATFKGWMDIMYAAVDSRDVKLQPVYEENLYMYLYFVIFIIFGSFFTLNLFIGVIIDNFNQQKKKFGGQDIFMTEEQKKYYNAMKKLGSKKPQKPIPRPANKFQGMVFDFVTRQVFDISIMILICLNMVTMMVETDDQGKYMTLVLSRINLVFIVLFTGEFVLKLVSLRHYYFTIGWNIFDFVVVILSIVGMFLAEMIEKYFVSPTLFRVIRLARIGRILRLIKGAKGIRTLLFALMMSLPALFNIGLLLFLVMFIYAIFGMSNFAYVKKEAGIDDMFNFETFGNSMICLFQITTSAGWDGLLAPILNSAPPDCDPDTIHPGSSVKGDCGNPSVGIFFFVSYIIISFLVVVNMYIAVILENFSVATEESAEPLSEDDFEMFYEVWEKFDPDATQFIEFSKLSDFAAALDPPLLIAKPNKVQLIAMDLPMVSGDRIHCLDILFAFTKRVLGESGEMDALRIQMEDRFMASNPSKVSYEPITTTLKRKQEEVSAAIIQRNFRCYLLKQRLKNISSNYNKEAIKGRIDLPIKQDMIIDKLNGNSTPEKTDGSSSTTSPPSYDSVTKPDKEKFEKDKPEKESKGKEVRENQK

| SMILES | IC50 (hNav1.5; hNav1.5) [nM] | IC50 (hNav1.3; hNav1.3) [nM] | IC50 (hNav1.7; hNav1.7) [nM] | IC50 (hNav1.5) [nM] | IC50 (hNav1.3) [nM] | IC50 (hNav1.7) [nM] |
| --- | --- | --- | --- | --- | --- | --- |
| CC[C@H](C)[C@@H]1NC(=O)[C@@H]2CSSC[C@@H]3NC(=O)[C@H](C(C)C)NC(=O)[C@H](CC(C)C)NC(=O)[C@H](CC(N)=O)NC(=O)[C@@H]4CCCN4C(=O)[C@H](CCCNC(=N)N)NC(=O)[C@H](CSSC[C@H](NC(=O)[C@@H](N)CC(=O)O)C(=O)N[C@@H](CC(C)C)C(=O)NCC(=O)N[C@@H](Cc4ccccc4)C(=O)N[C@@H](Cc4c[nH]c5ccccc45)C(=O)N[C@@H](CCCNC(=N)N)C(=O)N[C@@H](CCCCN)C(=O)N2)NC(=O)[C@H](CSSC[C@@H](C(=O)N[C@@H](CCCCN)C(=O)N[C@@H](Cc2ccc(O)cc2)C(=O)N[C@@H](Cc2cccc4ccccc24)C(=O)N[C@@H](Cc2ccccc2)C(N)=O)NC(=O)[C@H](Cc2c[nH]c4ccccc24)NC(=O)[C@H](CCCCN)NC(=O)[C@H](Cc2c[nH]cn2)NC(=O)[C@H]([C@@H](C)O)NC(=O)[C@H](CCCNC(=N)N)NC(=O)[C@H](CO)NC3=O)NC(=O)[C@H](CCCCN)NC(=O)[C@H](CC(=O)O)NC(=O)[C@H](CC(N)=O)NC(=O)[C@H](CC(=O)O)NC(=O)[C@@H]2CCCN2C1=O [compound 461] (H-DCLGFWRKCIPDNDKCCRPNLVCSRTHKWCKY[1Nal]F-NH2; disulfide 2-17, 9-23, 16-30) | > 5000 | 50 | 100 | – | – | – |
| CSCC[C@@H]1NC(=O)[C@H](Cc2ccccc2)NC(=O)CNC(=O)[C@H](CC(C)C)NC(=O)[C@@H](NC(=O)[C@@H](N)CC(=O)O)CSSC[C@@H]2NC(=O)[C@@H]3CSSC[C@@H](C(=O)N[C@@H](CCCCN)C(=O)N[C@@H](Cc4ccc(O)cc4)C(=O)N[C@@H](Cc4cccc5ccccc45)C(=O)N[C@@H](Cc4ccccc4)C(N)=O)NC(=O)[C@H](Cc4c[nH]c5ccccc45)NC(=O)[C@H](CCCCN)NC(=O)[C@H](Cc4c[nH]cn4)NC(=O)[C@H]([C@@H](C)O)NC(=O)[C@H](CCCNC(=N)N)NC(=O)[C@H](CO)NC(=O)[C@H](CSSC[C@H](NC(=O)[C@H](CCCCN)NC(=O)[C@H](CCCNC(=N)N)NC1=O)C(=O)N[C@@H](Cc1cccc4ccccc14)C(=O)N1CCC[C@H]1C(=O)N[C@@H](CC(=O)O)C(=O)N[C@@H](CC(N)=O)C(=O)N[C@@H](CC(=O)O)C(=O)N[C@@H](CCCCN)C(=O)N3)NC(=O)[C@H](C(C)C)NC(=O)[C@H](CC(C)C)NC(=O)[C@H](CC(N)=O)NC(=O)[C@@H]1CCCN1C(=O)[C@H](CCCNC(=N)N)NC2=O [compound 462] | > 5000 | 70 | 110 | – | – | – |
| CC[C@H](C)[C@@H]1NC(=O)[C@@H]2CSSC[C@@H]3NC(=O)[C@H](C(C)C)NC(=O)[C@H](CC(C)C)NC(=O)[C@H](CC(N)=O)NC(=O)[C@@H]4CCCN4C(=O)[C@H](CCCNC(=N)N)NC(=O)[C@H](CSSC[C@H](NC(=O)[C@@H](N)CC(=O)O)C(=O)N[C@@H](CC(C)C)C(=O)NCC(=O)N[C@@H](Cc4ccccc4)C(=O)N[C@@H](CCSC)C(=O)N[C@@H](CCCNC(=N)N)C(=O)N[C@@H](CCCCN)C(=O)N2)NC(=O)[C@H](CSSC[C@@H](C(=O)N[C@@H](CCCCN)C(=O)N[C@@H](Cc2ccc(O)cc2)C(=O)N[C@@H](Cc2cccc4ccccc24)C(=O)N[C@@H](Cc2ccccc2)C(N)=O)NC(=O)[C@H](Cc2c[nH]c4ccccc24)NC(=O)[C@H](CCCCN)NC(=O)[C@H](Cc2c[nH]cn2)NC(=O)[C@H](CC(C)C)NC(=O)[C@H](CCCNC(=N)N)NC(=O)[C@H](CO)NC3=O)NC(=O)[C@H](CCCCN)NC(=O)[C@H](CC(=O)O)NC(=O)[C@H](CC(N)=O)NC(=O)[C@H](CC(=O)O)NC(=O)[C@@H]2CCCN2C1=O [compound 463] (H-DCLGFMRKCIPDNDKCCRPNLVCSRLHKWCKY[1Nal]F-NH2; disulfide 2-17, 9-23, 16-30) | > 5000 | 180 | 130 | – | – | – |
| CSCC[C@@H]1NC(=O)[C@H](Cc2ccccc2)NC(=O)CNC(=O)[C@H](CC(C)C)NC(=O)[C@@H](NC(=O)[C@H](CC(=O)O)NC(=O)[C@@H](N)Cc2c[nH]c3ccccc23)CSSC[C@@H]2NC(=O)[C@@H]3CSSC[C@@H](C(=O)N[C@@H](CCCCN)C(=O)N[C@@H](Cc4ccc(O)cc4)C(=O)N[C@H](C(=O)N[C@@H](Cc4ccccc4)C(N)=O)C(C)C)NC(=O)[C@H](Cc4c[nH]c5ccccc45)NC(=O)[C@H](CCCCN)NC(=O)[C@H](Cc4c[nH]cn4)NC(=O)[C@H]([C@@H](C)O)NC(=O)[C@H](CCCNC(=N)N)NC(=O)[C@H](CO)NC(=O)[C@H](CSSC[C@H](NC(=O)[C@H](CCCCN)NC(=O)[C@H](CCCNC(=N)N)NC1=O)C(=O)N[C@@H](Cc1cccc4ccccc14)C(=O)N1CCC[C@H]1C(=O)N[C@@H](CC(=O)O)C(=O)N[C@@H](CC(N)=O)C(=O)N[C@@H](CC(=O)O)C(=O)N[C@@H](CCCCN)C(=O)N3)NC(=O)[C@H](C(C)C)NC(=O)[C@H](CC(C)C)NC(=O)[C@H](CC(N)=O)NC(=O)[C@@H]1CCCN1C(=O)[C@H](CCCNC(=N)N)NC2=O [compound 464] | > 5000 | 220 | 200 | – | – | – |
| CC[C@H](C)[C@@H]1NC(=O)[C@@H]2CSSC[C@@H]3NC(=O)[C@H](C(C)C)NC(=O)[C@H](CC(C)C)NC(=O)[C@H](CC(N)=O)NC(=O)[C@@H]4CCCN4C(=O)[C@H](CCCNC(=N)N)NC(=O)[C@H](CSSC[C@H](NC(=O)[C@@H](N)CC(=O)O)C(=O)N[C@@H](CC(C)C)C(=O)NCC(=O)N[C@@H](Cc4ccccc4)C(=O)N[C@@H](Cc4ccccc4)C(=O)N[C@@H](CCCNC(=N)N)C(=O)N[C@@H](CCCCN)C(=O)N2)NC(=O)[C@H](CSSC[C@@H](C(=O)N[C@@H](CCCCN)C(=O)N[C@@H](Cc2ccc(O)cc2)C(=O)N[C@H](C(=O)N[C@@H](Cc2cccc4ccccc24)C(N)=O)C(C)C)NC(=O)[C@H](Cc2c[nH]c4ccccc24)NC(=O)[C@H](CCCCN)NC(=O)[C@H](Cc2c[nH]cn2)NC(=O)[C@H]([C@@H](C)O)NC(=O)[C@H](CCCNC(=N)N)NC(=O)[C@H](CO)NC3=O)NC(=O)[C@H](CCCCN)NC(=O)[C@H](CC(=O)O)NC(=O)[C@H](CC(N)=O)NC(=O)[C@H](CC(=O)O)NC(=O)[C@@H]2CCCN2C1=O [compound 561] (H-DCLGFFRKCIPDNDKCCRPNLVCSRTHKWCKYV[1Nal]-NH2; disulfide 2-17, 9-23, 16-30) | – | – | – | 2200 | 7 | 11 |
| CC[C@H](C)[C@@H]1NC(=O)[C@@H]2CSSC[C@@H]3NC(=O)[C@H](C(C)C)NC(=O)[C@H](CC(C)C)NC(=O)[C@H](CC(N)=O)NC(=O)[C@@H]4CCCN4C(=O)[C@H](CCCNC(=N)N)NC(=O)[C@H](CSSC[C@H](NC(=O)[C@@H](N)CC(=O)O)C(=O)N[C@@H](CC(C)C)C(=O)NCC(=O)N[C@@H](Cc4cccnc4)C(=O)N[C@@H](CCSC)C(=O)N[C@@H](CCCNC(=N)N)C(=O)N[C@@H](CCCCN)C(=O)N2)NC(=O)[C@H](CSSC[C@@H](C(=O)N[C@@H](CCCCN)C(=O)N[C@@H](Cc2ccc(O)cc2)C(=O)N[C@H](C(=O)N[C@@H](Cc2ccccc2)C(N)=O)C(C)C)NC(=O)[C@H](Cc2c[nH]c4ccccc24)NC(=O)[C@H](CCCCN)NC(=O)[C@H](Cc2c[nH]cn2)NC(=O)[C@H]([C@@H](C)O)NC(=O)[C@H](CCCNC(=N)N)NC(=O)[C@H](CO)NC3=O)NC(=O)[C@H](CCCCN)NC(=O)[C@H](CC(=O)O)NC(=O)[C@H](CC(N)=O)NC(=O)[C@H](CC(=O)O)NC(=O)[C@@H]2CCCN2C1=O [compound 596] | > 5000 | > 5000 | 2600 | – | – | – |
| CC[C@H](C)[C@@H]1NC(=O)[C@@H]2CSSC[C@@H]3NC(=O)[C@H](C(C)C)NC(=O)[C@H](CC(C)C)NC(=O)[C@H](CC(N)=O)NC(=O)[C@@H]4CCCN4C(=O)[C@H](CCCNC(=N)N)NC(=O)[C@H](CSSC[C@H](NC(=O)[C@@H](N)CC(=O)O)C(=O)N[C@@H](CC(C)C)C(=O)NCC(=O)N[C@@H](C)C(=O)N[C@@H](Cc4ccccc4)C(=O)N[C@@H](CCCNC(=N)N)C(=O)N[C@@H](CCCCN)C(=O)N2)NC(=O)[C@H](CSSC[C@@H](C(=O)N[C@@H](CCCCN)C(=O)N[C@@H](Cc2ccc(O)cc2)C(=O)N[C@H](C(=O)N[C@@H](Cc2ccccc2)C(=O)O)C(C)C)NC(=O)[C@H](Cc2c[nH]c4ccccc24)NC(=O)[C@H](CCCNC(=N)N)NC(=O)[C@H](Cc2c[nH]cn2)NC(=O)[C@H]([C@@H](C)O)NC(=O)[C@H](CCCNC(=N)N)NC(=O)[C@H](CO)NC3=O)NC(=O)[C@H](CCCCN)NC(=O)[C@H](CC(=O)O)NC(=O)[C@H](Cc2ccc(O)cc2)NC(=O)[C@H](CC(=O)O)NC(=O)[C@@H]2CCCN2C1=O [compound 597] (H-DCLGAFRKCIPDYDKCCRPNLVCSRTHRWCKYVF-OH; disulfide 2-17, 9-23, 16-30) | 7350 | 1100 | > 5000 | – | – | – |
| CC[C@H](C)[C@@H]1NC(=O)[C@@H]2CSSC[C@@H]3NC(=O)[C@H](C(C)C)NC(=O)[C@H](CC(C)C)NC(=O)[C@H](CC(N)=O)NC(=O)[C@@H]4CCCN4C(=O)[C@H](CCCNC(=N)N)NC(=O)[C@H](CSSC[C@H](NC(=O)[C@@H](N)CC(=O)O)C(=O)N[C@@H](CC(C)C)C(=O)NCC(=O)N[C@@H](C)C(=O)N[C@@H](CC(C)C)C(=O)N[C@@H](CCCNC(=N)N)C(=O)N[C@@H](CCCCN)C(=O)N2)NC(=O)[C@H](CSSC[C@@H](C(=O)N[C@@H](CCCCN)C(=O)N[C@@H](Cc2ccc(O)cc2)C(=O)N[C@H](C(=O)N[C@@H](Cc2ccccc2)C(=O)O)C(C)C)NC(=O)[C@H](Cc2c[nH]c4ccccc24)NC(=O)CNC(=O)[C@H](Cc2c[nH]cn2)NC(=O)[C@H]([C@@H](C)O)NC(=O)[C@H](CCCNC(=N)N)NC(=O)[C@H](CO)NC3=O)NC(=O)[C@H](CCCCN)NC(=O)[C@H](CC(=O)O)NC(=O)[C@H](CC(N)=O)NC(=O)[C@H](CC(=O)O)NC(=O)[C@@H]2CCCN2C1=O [compound 598] (H-DCLGALRKCIPDNDKCCRPNLVCSRTHGWCKYVF-OH; disulfide 2-17, 9-23, 16-30) | 12600 | 4000 | > 5000 | – | – | – |
